Results from patent US11547697B2, “Heterocyclic compounds and uses thereof” (MILLENNIUM PHARMACEUTICALS, INC., priority 2009, dated 2023).
pIC50: −log10 of the molar value. “Also recorded” adds a separate entry of the source.

Tests used:
p110α/p85α = p110α/p85α (Homo sapiens (Human), UniProt P42336); test: PI 3-Kinase (human) HTRF assay, p110α/p85α; type: biochemical; conditions: PI3K α compared with β, δ, γ
Protocol: (§1) An exemplary system is PI 3-Kinase (human) HTRF™ Assay from Upstate. […] Briefly, the assay is a time resolved FRET assay that indirectly measures PIP3 product formed by the activity of a PI3-K. The kinase reaction is performed in a microtitre plate (e.g., a 384 well microtitre plate). The total reaction volume is approximately 20 ul per well. In the first step, each well receives 2 ul of test compound in 20% dimethylsulphoxide resulting in a 2% DMSO final concentration. Next, approximately 14.5 ul of a kinase/PIP2 mixture (diluted in 1× reaction buffer) is added per well for a final concentration of 0.25-0.3 ug/ml kinase and 10 μM PIP2. The plate is sealed and incubated for 15 minutes at room temperature. To start the reaction, 3.5 ul of ATP (diluted in 1× reaction buffer) is added per well for a final concentration of 10 μM ATP. The plate is sealed and incubated for 1 hour at room temperature. The reaction is stopped by adding 5 ul of Stop Solution per well and then 5 ul of Detection Mix is added per well. The plate is sealed, incubated for 1 hour at room temperature, and then read on an appropriate plate reader. Data is analyzed and IC50s are generated using GraphPad Prism 5. […] For PI3K α, β, δ, and γ, the nM concentration of inhibitor to reach IC50 is provided.

p110γ = p110γ (Homo sapiens (Human), UniProt P48736); test: PI 3-Kinase (human) HTRF assay, p110γ; type: biochemical; conditions: read-out: PI3K γ IC50
Protocol: as §1

[1] = test system: pAKT(S473), pAKT(T308), pS6, p4E-BP1 in MDA-MB-361, T47D, PC3 cells; test: Inhibition of PI3K pathway in tumor cells (Western blot of pAKT, pS6, p4E-BP1); type: cell-based; conditions: FIG. 2; 0.1 μM, 1 μM, and 10 μM, about 2 hours
Protocol: Cells comprising one or more mutations in PI3Kα, including but not limited to breast cancer cells (e.g., MDA-MB-361 and T47D), and cells comprising one or more mutations in PTEN including but not limited to prostate cancer cells (e.g., PC3), are typically grown in cell growth media such as DMEM supplemented with fetal bovine serum and/or antibiotics, and grown to confluency. Cells are then treated with various concentrations of test compound for about 2 hours and subsequently lysed in cell lysis buffer. Lysates are subjected to SDS-PAGE followed by Western blot analysis to detect downstream signaling markers, including but not limited to pAKT(S473), pAKT(T308), pS6, and p4E-BP1.

[2] = test system: tumor cells with a PI3Kα mutation (e.g., MDA-MB-361 and T47D); test: Proliferation of tumor cells with PI3Kα mutation; type: cell-based
[3] = test system: human umbilical vein endothelial cells (HUVEC); test: In vitro inhibition of angiogenesis, tube formation assay; type: cell-based; conditions: FIG. 3
Protocol: Inhibition of angiogenesis in the presence of test compound is evaluated using a tube formation assay, such as by using a tube formation assay kit (e.g., commerically available from Invitrogen). Angiogenic capacity can be measured in vitro using an endothelial cell line, such as human umbilical vein endothelial cells (HUVEC). The assay is conducted according to the kit instructions, in the presence or absence of compound. Briefly, a gel matrix is applied to a cell culture surface, cells are added to the matrix-covered surface along with growth factors, with some samples also receiving an inhibitor compound, cells are incubated at 37° C. and 5% CO2 long enough for control samples (no compound added) to form tube structures (such as overnight), cells are stained using a cell-permeable dye (e.g., calcein), and cells are visualized to identify the degree of tube formation. Any decrease in tube formation relative to un-inhibited control cells is indicative of angiogenic inhibition. […] Based on doses tested and the corresponding degree of tube formation inhibition, IC50 values for tube formation are calculated. FIG. 3 also provides IC50 values for cell viability, which can be measured using any number of methods known in the art, such as staining methods that distinguish live from dead cells (e.g., Image-iT DEAD Green viability stain commercially available from Invitrogen).

[4] = test system: 786-O cells, a human kidney carcinoma cell line; test: In vivo efficacy in 786-O xenograft (non-mutated PI3Kα); set-up: species or system mice; conditions: FIG. 6
Text: For example, a test compound is compared to a kinase inhibitor with specificity for mTor. […] FIG. 6 also provides biochemical potency data for the two compared inhibitors.

HCT116 cells = test: Cell arrest assay, alone and in combination with MEK inhibitor; type: cell-based, human
Protocol: Cells are then incubated in the presence of DMSO or inhibitor for 20 hours. The number of cells at each stage in the cell cycle is determined and expressed as a percent of the total, with an increase in the number of cells arrested at pre-GO/G1 indicating effective inhibition of cell cycle progression.

[5] = test system: MDA-MB-361 (PI3Kα/HER2 carcinoma) tumors; test: In vivo efficacy in xenogenic mouse model of breast cancer
Protocol: Blood glucose is monitored periodically following administration of treatment. […] The effect of the compounds on the localization/viability of marginal zone B cells in the spleen is also evaluated at the conclusion of treatment.

Chain of p110α/p85α (P42336 whole entry): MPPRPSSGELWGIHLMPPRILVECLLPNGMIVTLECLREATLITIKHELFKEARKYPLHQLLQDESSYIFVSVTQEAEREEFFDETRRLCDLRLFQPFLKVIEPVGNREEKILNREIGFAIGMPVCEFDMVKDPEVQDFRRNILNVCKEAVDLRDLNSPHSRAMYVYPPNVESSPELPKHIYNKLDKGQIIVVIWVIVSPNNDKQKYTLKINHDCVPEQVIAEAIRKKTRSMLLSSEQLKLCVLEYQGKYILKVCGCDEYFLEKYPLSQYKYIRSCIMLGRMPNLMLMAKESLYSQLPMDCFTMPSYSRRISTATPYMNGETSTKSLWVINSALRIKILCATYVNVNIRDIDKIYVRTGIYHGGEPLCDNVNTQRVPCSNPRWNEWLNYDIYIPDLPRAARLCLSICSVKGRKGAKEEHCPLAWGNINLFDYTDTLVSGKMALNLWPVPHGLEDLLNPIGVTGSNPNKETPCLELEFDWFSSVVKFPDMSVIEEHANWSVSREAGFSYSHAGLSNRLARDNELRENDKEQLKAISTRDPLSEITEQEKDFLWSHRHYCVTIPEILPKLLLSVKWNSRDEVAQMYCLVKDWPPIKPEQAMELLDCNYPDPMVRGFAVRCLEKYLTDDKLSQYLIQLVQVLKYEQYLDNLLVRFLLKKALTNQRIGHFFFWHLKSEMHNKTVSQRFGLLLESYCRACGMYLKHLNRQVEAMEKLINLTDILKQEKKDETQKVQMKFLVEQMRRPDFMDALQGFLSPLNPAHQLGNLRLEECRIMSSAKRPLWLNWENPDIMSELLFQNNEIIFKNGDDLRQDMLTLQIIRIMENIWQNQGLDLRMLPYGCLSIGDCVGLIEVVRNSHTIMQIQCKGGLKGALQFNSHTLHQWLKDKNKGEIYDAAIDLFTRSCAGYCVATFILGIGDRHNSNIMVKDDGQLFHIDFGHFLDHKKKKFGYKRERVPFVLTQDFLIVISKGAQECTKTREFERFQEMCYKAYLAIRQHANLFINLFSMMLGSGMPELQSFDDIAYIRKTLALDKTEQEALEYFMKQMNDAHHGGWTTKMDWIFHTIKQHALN
Chain of p110α/p85α (P27986 whole entry partner): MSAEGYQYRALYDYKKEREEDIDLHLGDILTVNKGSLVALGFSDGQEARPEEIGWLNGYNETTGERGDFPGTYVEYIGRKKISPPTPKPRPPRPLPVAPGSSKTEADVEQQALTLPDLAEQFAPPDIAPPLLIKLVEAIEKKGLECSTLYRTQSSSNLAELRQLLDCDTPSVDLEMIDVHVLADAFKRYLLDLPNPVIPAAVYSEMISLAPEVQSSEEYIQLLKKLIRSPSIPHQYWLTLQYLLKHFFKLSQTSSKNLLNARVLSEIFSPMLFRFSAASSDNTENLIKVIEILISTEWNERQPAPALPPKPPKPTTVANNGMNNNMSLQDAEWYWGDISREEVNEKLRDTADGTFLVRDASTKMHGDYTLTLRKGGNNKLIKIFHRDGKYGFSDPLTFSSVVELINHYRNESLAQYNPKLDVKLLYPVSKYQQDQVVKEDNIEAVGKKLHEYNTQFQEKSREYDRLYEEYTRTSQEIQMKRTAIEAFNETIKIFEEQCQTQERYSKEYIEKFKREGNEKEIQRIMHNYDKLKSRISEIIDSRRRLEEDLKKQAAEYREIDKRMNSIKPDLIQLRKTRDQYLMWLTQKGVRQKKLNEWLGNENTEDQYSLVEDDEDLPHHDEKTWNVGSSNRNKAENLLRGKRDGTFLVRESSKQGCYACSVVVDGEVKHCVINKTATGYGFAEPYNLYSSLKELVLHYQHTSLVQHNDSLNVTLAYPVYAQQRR
Chain of p110γ (P48736 whole entry): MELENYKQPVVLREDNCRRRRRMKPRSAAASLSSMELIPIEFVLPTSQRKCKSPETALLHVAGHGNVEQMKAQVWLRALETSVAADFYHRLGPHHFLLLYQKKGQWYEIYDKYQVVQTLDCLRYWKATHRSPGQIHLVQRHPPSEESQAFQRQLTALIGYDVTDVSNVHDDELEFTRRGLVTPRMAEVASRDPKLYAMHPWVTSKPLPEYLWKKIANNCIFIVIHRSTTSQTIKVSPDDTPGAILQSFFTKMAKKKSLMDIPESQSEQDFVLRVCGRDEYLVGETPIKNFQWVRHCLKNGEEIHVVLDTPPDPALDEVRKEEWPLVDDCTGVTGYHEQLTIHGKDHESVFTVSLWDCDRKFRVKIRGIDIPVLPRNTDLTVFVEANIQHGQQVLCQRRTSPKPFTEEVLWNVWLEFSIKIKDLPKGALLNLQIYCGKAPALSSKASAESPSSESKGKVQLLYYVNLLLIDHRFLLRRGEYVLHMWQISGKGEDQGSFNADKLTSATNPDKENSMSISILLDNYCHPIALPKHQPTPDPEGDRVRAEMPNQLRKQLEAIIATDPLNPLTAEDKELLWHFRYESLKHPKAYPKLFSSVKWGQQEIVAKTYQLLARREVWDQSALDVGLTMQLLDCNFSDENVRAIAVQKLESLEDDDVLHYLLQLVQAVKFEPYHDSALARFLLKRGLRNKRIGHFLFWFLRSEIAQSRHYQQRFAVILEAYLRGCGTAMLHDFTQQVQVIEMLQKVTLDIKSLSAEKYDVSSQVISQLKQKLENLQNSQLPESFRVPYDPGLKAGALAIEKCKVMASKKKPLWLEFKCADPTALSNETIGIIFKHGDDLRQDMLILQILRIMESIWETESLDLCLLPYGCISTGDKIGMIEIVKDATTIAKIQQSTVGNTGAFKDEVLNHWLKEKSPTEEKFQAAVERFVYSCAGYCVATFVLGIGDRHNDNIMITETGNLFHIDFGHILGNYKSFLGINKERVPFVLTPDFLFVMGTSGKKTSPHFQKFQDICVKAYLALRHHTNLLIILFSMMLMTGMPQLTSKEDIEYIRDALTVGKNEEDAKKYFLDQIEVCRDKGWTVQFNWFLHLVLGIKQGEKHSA

Question: Which results are given for `Nc1nc2cc(-c3ccc4ncc(C(=O)N5CCOCC5)n4c3)ccc2o1` [compound 54]?
Answer: Specificity of PI3K α inhibition versus PI3K β, δ and γ (IC50, FIG. 1 / FIG. 3) (p110α/p85α): Inhibition of PI3K α at lower concentrations than those for β, δ, and γ; also recorded: specificity for PI3K α inhibition; pIC50 (p110γ): > 5.00; Inhibition of the PI3K pathway (downstream signaling markers) [1]: inhibits the PI3K pathway; Inhibition of proliferation of tumor cells with a PI3Kα mutation ([2]; FIG. 2): inhibits the PI3K pathway and the proliferation of tumor cells with a PI3Kα mutation; pIC50 ([2]; Homo sapiens, T47D cells, read-out: T47D proliferation): > 5.00; Potency of angiogenesis inhibition (tube formation) compared with Pan-PI3K inhibitor [3]: comparable to higher potency; Anti-tumor activity in 786-O tumors [4]: still showing some anti-tumor activity, has decreased activity by comparison to that seen in the MDA derived tumors; Arrested cells (pre-GO/G1), percent of the total (HCT116 cells; 3 μM compound 54 combined with 0.3 μM MEK inhibitor (PD0325901), 20 hours, FIG. 7): 55%; Cell cycle arrest, single inhibitor versus DMSO control (HCT116 cells; 3 μM compound 54 or 0.3 μM PD0325901, 20 hours): some increase in cell cycle arrest by comparison to DMSO control; Combination effect with other (MEK) inhibitors (HCT116 cells; compound 54 plus MEK inhibitor): synergistic; Arrested cells expected by merely adding the individual effects (HCT116 cells; sum of 3 μM compound 54 alone and 0.3 μM MEK inhibitor alone, 20 hours): 40%; Impact on blood glucose ([5]; MDA-MB-361 tumor-bearing nude mice, daily oral dosing, FIG. 4): without the impact on blood glucose; Kinase- and tumor growth-inhibition activity ([5]; MDA-MB-361 tumors in nude mice, 30 mpk or 60 mpk test compound, 70 mpk Pan-PI3K inhibitor, daily oral lavage, FIG. 4): comparable kinase- and tumor growth-inhibition activity to the Pan-PI3K inhibitor; Localization/viability of marginal zone B cells in the spleen ([5]; at conclusion of treatment, FIG. 5): does not affect localization/viability of marginal zone B cells
